Laboratory results as given in US6461997B1, “Triazole sulfones having herbicidal activity” (Monsanto Technology LLC, priority 1999, dated 2002).

Experiments:
[1] = tested on: LAMPU (purple deadnettle); assay: Pre-emergence herbicidal activity, cool season; format: in vivo, Lamium purpureum; conditions: lowest tested rate with 80% or greater inhibition; rates 300, 100, 30, 10 g/ha; about 14 days
Procedure, shortened: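 GR80 values derive from percent inhibition relative to untreated plants, read roughly 14 days after sowing and pre-emergence soil-surface treatment (compound in 50:50 acetone/water; rates typically 10, 30, 100, 300 g/ha). Warm-season weeds grew at 30/21° C day/night, cool-season ones at 18/13° C; an asterisk marks activity without reaching 80% at the highest rate.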

[2] = tested on: ECHCG (barnyardgrass); assay: Pre-plant incorporated (PPI) herbicidal activity, warm season; format: in vivo, Echinochloa crus-galli; conditions: for PPI activity GR80, ECHCG: pre-plant incorporated, lowest tested rate with 80% or greater inhibition, about 14 days
Procedure: (§1) In another set of tests, the pre-plant incorporated (PPI) activity of compounds of this invention was evaluated on the same species as for the pre-emergence tests described above. In the PPI tests the following procedure, designed to simulate PPI application, was used.
(§2) A pre-prepared topsoil mixture (described above) was placed in a pot and compacted to a depth of 1.0 to 1.25 cm from the top of the pot. Seeds of each of several monocotyledonous and dicotyledonous annual plant species were placed on top of the soil. A sufficient quantity of soil to cover the seeds and level fill the pot was weighed into an open container. A known amount of the test compound was dissolved or suspended in an organic solvent and applied by spraying to this cover soil. The cover soil was thoroughly mixed to distribute the test compound throughout the cover soil, and was then applied as a cover layer over the seeds. Untreated soil was used as a cover layer for control pots. After treatment the plants were placed in a greenhouse where they received 0.64 cm of overhead irrigation. All subsequent watering consisted of a light overhead mist and/or subirrigation as needed for germination and growth. Tables 9 and 10 below relate to warm season plant species which were placed after pre-emergence treatment in a greenhouse with a 30/21° C. day/night temperature regime. Tables 11 and 12 below relates to cool season plant species placed after pre-emergence treatment in a greenhouse or growth chamber with an 18/13° C. day/night temperature regime. Only the compounds of Examples 1, 6, 8, 11, 13 and 15-20 were included in PPI tests.
(§3) Approximately 14 days after planting and treating, the plants were observed and herbicidal efficacy recorded as percent inhibition by comparison with untreated plants.

[3] = tested on: AEGCY (jointed goatgrass); assay: Pre-plant incorporated (PPI) herbicidal activity, cool season; format: in vivo, Aegilops cylindrica; conditions: for Percent inhibition AEGCY: weed, PPI application; for PPI activity GR80, AEGCY: pre-plant incorporated, lowest tested rate with 80% or greater inhibition, about 14 days
Procedure: as §1, §2, §3

[4] = tested on: POAAN (annual bluegrass); assay: as above; format: in vivo, Poa annua; conditions: weed, PPI application
Procedure: as §1, §2, §3

[5] = tested on: VERPE (creeping speedwell); assay: as above; format: in vivo, Veronica persicaria; conditions: for PPI activity GR80, VERPE: pre-plant incorporated, lowest tested rate with 80% or greater inhibition, about 14 days; for Percent inhibition VERPE: weed, PPI application
Procedure: as §1, §2, §3

[6] = tested on: AGRRE (quackgrass (seedling)); assay: Post-emergence herbicidal activity, cool season; format: in vivo, Elymus repens; conditions: abraded plants sprayed at 300, 100, 30 and 10 g/ha; about 14 days after treatment
Procedure: In another set of tests, the post-emergence activity of compounds of this invention was evaluated on the cool season species listed above. The following procedure was used.
A pre-prepared topsoil mixture (described above) was placed in a pot and compacted to a depth of 1.0 to 1.25 cm from the top of the pot. Seeds of each of several monocotyledonous and dicotyledonous annual plant species were placed on top of the soil. The seeds were covered with a mixture of 50% topsoil and 50% Rediearth™ in sufficient quantity to level-fill the pots. The pots were then placed on a greenhouse bench and subirrigated as needed.
When plants growing from the seeds had emerged and reached a suitable growth stage for post-emergence treatment, typically 9 to 14 days after planting, above-ground parts of the plants were subjected to a pre-treatment involving abrasion to create greater opportunity for foliar uptake of subsequently applied compounds. Abrasion was performed using garnet 200w particles applied with a Sears Craftsman hand-held sandblaster operated at approximately 850 kPa (50 psig) pressure.
A known amount of each test compound dissolved or suspended in an appropriate organic solvent was diluted with a 50:50 mix of acetone and water and applied to the plants by spraying with a standard spray nozzle in a spray volume of […] at a spray pressure of 511 kPa (30 psig). Only the compounds of Examples 1, 8-15 and 17-22 were included in post-emergence tests. Application rates for these compounds were 300, 100, 30 and 10 g/ha. Control plants were abraded but not sprayed.
After treatment the plants were placed in a greenhouse with an 18/13° C. day/night temperature regime and were subsequently watered as needed for growth. Approximately 14 days after treatment, the plants were observed and herbicidal efficacy recorded as percent inhibition by comparison with control plants. GR80 values were assigned for each compound as described above for the pre-emergence tests.

Row | SMILES | Pre-emergence activity GR80, LAMPU [1] | Percent inhibition ECHCG ([2]; PPI application, 30 g/ha) | Percent inhibition ECHCG ([2]; PPI application, 100 g/ha) | Percent inhibition ECHCG ([2]; PPI application, 300 g/ha) | Percent inhibition ECHCG ([2]; PPI application, 900 g/ha) | Percent inhibition AEGCY ([3]; 30 g/ha) | Percent inhibition AEGCY ([3]; 100 g/ha) | Percent inhibition AEGCY ([3]; 300 g/ha) | Percent inhibition AEGCY ([3]; 900 g/ha) | Percent inhibition POAAN ([4]; 30 g/ha) | Percent inhibition POAAN ([4]; 100 g/ha) | Percent inhibition POAAN ([4]; 300 g/ha) | Percent inhibition POAAN ([4]; 900 g/ha) | PPI activity GR80, ECHCG [2] | PPI activity GR80, VERPE [5] | PPI activity GR80, AEGCY [3] | Post-emergence activity GR80, AGRRE [6] | other results
1 | CCN(CC)C(=O)n1cnc(S(=O)(=O)C(F)(F)F)n1 [Example 2] | 10 g/ha | 40% | 80% | 100% | 100% | 0% | 20% | 20% | 70% | 80% | 100% | 100% | 100% |  |  |  |  | 
2 | CCN(CC)C(=O)n1cnc(S(=O)(=O)C(F)(F)Cl)n1 [Example 3] | 100 g/ha | 100% | 99% | 100% | 100% | 0% | 50% | 40% | 90% | 70% | 100% | 100% | 100% |  |  |  |  | 
3 | CCN(CC)C(=O)n1cnc(S(=O)(=O)C(F)(F)C(F)(F)Br)n1 [Example 4] | 30 g/ha | 20% | 100% | 100% | 100% | 0% | 30% | 50% | 30% | 95% | 75% | 100% | 100% |  |  |  |  | 
4 | CCN(CC)C(=O)n1cnc(S(=O)(=O)C(F)(F)C(=O)c2ccccc2)n1 [Example 6] | 100 g/ha |  |  |  |  |  |  |  |  |  |  |  |  | 100 g/ha | 100 g/ha | [empty] |  | 
5 | CCN(CC)C(=O)n1cnc(S(=O)(=O)C(F)(F)SC)n1 [Example 9] | 300 g/ha | 90% | 100% | 100% | 100% | 0% | 20% | 30% | 40% | 90% | 100% | 100% | 100% |  |  |  | [empty] | 
6 | CCN(CC)C(=O)n1cnc(S(=O)(=O)C(F)(F)C(F)(F)SC)n1 [Example 14] | 300 g/ha |  |  |  |  |  |  |  |  |  |  |  |  |  |  |  | [empty] | 
7 | CCN(CC)C(=O)n1cnc(S(=O)(=O)C(F)F)n1 [Example 15, 1-(N,N-diethylcarbamoyl)-3-(difluoromethylsulfonyl)-1,2,4-triazole] |  |  |  |  |  |  |  |  |  |  |  |  |  | 100 g/ha | 300 g/ha | [empty] | [empty] | inhibition at 10 g/ha ([2]; Echinochloa crus-galli, PPI application, 10 g/ha, read-out: Percent inhibition ECHCG): 10%; inhibition at 30 g/ha ([2]; Echinochloa crus-galli, PPI application, 30 g/ha, read-out: Percent inhibition ECHCG): 50%; inhibition at 100 g/ha ([2]; Echinochloa crus-galli, PPI application, 100 g/ha, read-out: Percent inhibition ECHCG): 90%; inhibition at 300 g/ha ([2]; Echinochloa crus-galli, PPI application, 300 g/ha, read-out: Percent inhibition ECHCG): 100%; inhibition at 900 g/ha ([2]; Echinochloa crus-galli, PPI application, 900 g/ha, read-out: Percent inhibition ECHCG): 90%
8 | CCN(CC)C(=O)n1cnc(S(=O)(=O)C(F)(F)C(F)F)n1 [Example 16] | 100 g/ha | 100% | 100% | 100% | 100% | 0% | 0% | 20% | 60% | 50% | 65% | 100% | 100% | 30 g/ha | 100 g/ha | 300 g/ha |  | Percent inhibition ECHCG ([2]; PPI application, 10 g/ha): 90%; Percent inhibition VERPE ([5]; 10 g/ha): 100%; Percent inhibition VERPE ([5]; 30 g/ha): 95%; Percent inhibition VERPE ([5]; 100 g/ha): 100%; Percent inhibition VERPE ([5]; 300 g/ha): 100%; Percent inhibition VERPE ([5]; 900 g/ha): 100%; Percent inhibition AEGCY ([3]; 10 g/ha): 0%; Percent inhibition POAAN ([4]; 10 g/ha): 20%
